Tested on: Ctenocephalides felis, Diabrotica undecimpunctata, Nephotettix cincticeps or Rhipicephalus sanguineus
Assay: Pooled statement: active in one or more of the above tests (Methods A to E)
Assay type: in vivo
Settings: active = reaching the threshold of Method A, B, C, D or E; test not given per compound
Protocol: The following representative test procedures, using compounds of the invention, were conducted to determine the parasiticidal and pesticidal activity of compounds of the invention.
A test container was filled with 10 adults of Ctenocephalides felis. A glass cylinder was closed on one end with parafilm and placed on top of the test container. The test compound solution was then pipetted into bovine blood and added to the glass cylinder. The treated Ctenocephalides felis were held in this artificial dog test (blood 37° C., 40-60% relative humidity; Ctenocephalides felis 20-22° C., 40-60% relative humidity) and assessment performed at 24 and 48 hours after application. Active compounds gave at least 90% control of Ctenocephalides felis at a test concentration of 5 ppm or less.
Two days before application, seeds of maize were soaked in water under warm conditions to elicit fast germination. One day before application, eggs of Diabrotica undecimpunctata were transferred to one half of a Japanese filter paper placed in a plastic petri dish. Afterwards, a sprouted maize seed was placed on a moistened pad beside the filter paper. Three drops of 200 microliters of test compound solution were carefully pipetted onto the egg. The remainder of the solution was placed on the maize and then the Petri dish was closed. The treated eggs in the Petri dishes were held in a climate chamber for 6 days. The compound efficacy (percentage of dead eggs and/or larvae in comparison to untreated control) was assessed 6 days after application using a binocular microscope.
Active compounds gave at least 90% control of Diabrotica undecimpunctata at a test concentration of 10 ppm.
The leaves of 12 rice plants having a stem length of 8 cm were dipped for 5 seconds into an aqueous solution of the formulated test compound. After the solution had run off, the rice plants treated in this manner were placed in a Petri dish and populated with about 20 larvae (L3 stage) of Nephotettix cincticeps. The Petri dish was closed and then stored in a climate chamber (16 hours of light/day, 25° C., 40-60% relative humidity). After 6 days storage, the percentage mortality of leafhopper larvae was determined.
Active compounds gave at least 98% mortality of Nephotettix cinciceps larvae at a test concentration of 100 ppm.
Solutions of the test compounds were dropped onto filter paper, dried and the filter paper placed into test tubes and infested with 10 adults of Ctenocephalides felis. The treated Ctenocephalides felis were held in a climate chamber (26° C., 80% RH) and the percentage efficacy assessed 24 hours and 48 hours after application in comparison with the untreated control.
Active compounds gave at least 70% contact control of Ctenocephalides felis at a test concentration of 1000 ppm.
Solutions of the test compounds were dropped onto filter paper, dried and the filter paper placed into test tubes and infested with 20-30 larvae (L1) of Rhipicephalus sanguineus and the tubes closed with a clip. The treated Rhipicephalus sanguineus were held in a climate chamber (25° C., 90% RH) and the percentage efficacy assessed 24 hours after application in comparison with the untreated control. Active compounds gave at least 70% contact control of Rhipicephalus sanguineus at a test concentration of 100 ppm.

| SMILES | active in one or more of the above tests |
| --- | --- |
| CS(=O)(=O)[N-]c1c(SC(F)(F)F)c(C#N)nn1-c1c(Cl)cc(C(F)(F)F)cc1Cl.[Na+] [Compound 1-116] | active |
| CN(c1c(S(=O)(=O)C(F)(F)F)c(C#N)nn1-c1c(Cl)cc(C(F)(F)F)cc1Cl)S(=O)(=O)Cc1cc(C(F)(F)F)cc(C(F)(F)F)c1 [Compound 2-129] | active |
| Cc1cccc(S(=O)(=O)N(C)c2c([S+]([O-])C(F)(F)F)c(C#N)nn2-c2c(Cl)cc(C(F)(F)F)cc2Cl)c1 (stereo not drawn) [Compound 5-75] | active |
| CN(c1c(SC(F)(F)F)c(C#N)nn1-c1c(Cl)cc(C(F)(F)F)cc1Cl)S(=O)(=O)Cc1ccccc1 [Compound 2-2] | active |
| CN(c1c([S+]([O-])C(F)(F)F)c(C#N)nn1-c1c(Cl)cc(C(F)(F)F)cc1Cl)S(=O)(=O)c1cccc(C(F)(F)F)c1 (stereo not drawn) [Compound 5-60] | active |
| CN(c1c(S(=O)(=O)C(F)(F)F)c(C#N)nn1-c1c(Cl)cc(C(F)(F)F)cc1Cl)S(=O)(=O)C=Cc1ccccc1 [Compound 1-115] | active |
| CC(C)S(=O)(=O)N(C)c1c(SC(F)(F)F)c(C#N)nn1-c1c(Cl)cc(C(F)(F)F)cc1Cl [Compound 1-122] | active |
| CN(c1c(SC(F)(F)F)c(C#N)nn1-c1c(Cl)cc(C(F)(F)F)cc1Cl)S(=O)(=O)c1cccc(C(F)(F)F)c1 [Compound 5-15] | active |
| CN(c1c([S+]([O-])C(F)(F)F)c(C#N)nn1-c1c(Cl)cc(C(F)(F)F)cc1Cl)S(=O)(=O)c1ccc([N+](=O)[O-])cc1 (stereo not drawn) [Compound 5-88] | active |
| CCCCCCCCCCS(=O)(=O)N(C)c1c(SC(F)(F)F)c(C#N)nn1-c1c(Cl)cc(C(F)(F)F)cc1Cl [Compound 1-125] | active |
| CN(c1c([S+]([O-])C(F)(F)F)c(C#N)nn1-c1c(Cl)cc(C(F)(F)F)cc1Cl)S(=O)(=O)c1ccc(F)cc1 (stereo not drawn) [Compound 5-54] | active |
| CN(c1c(S(=O)(=O)C(F)(F)F)c(C#N)nn1-c1c(Cl)cc(C(F)(F)F)cc1Cl)S(=O)(=O)Cc1cccc(C(F)(F)F)c1 [Compound 2-127] | active |
| CN(c1c([S+]([O-])C(F)(F)F)c(C#N)nn1-c1c(Cl)cc(C(F)(F)F)cc1Cl)S(=O)(=O)c1ccc(-c2ccc(F)cc2)cc1 (stereo not drawn) [Compound 5-151] | active |
| CCS(=O)(=O)N(C)c1c(SC(F)(F)F)c(C#N)nn1-c1c(Cl)cc(C(F)(F)F)cc1Cl [Compound 1-44] | active |
| Cc1ccc(CS(=O)(=O)N(C)c2c([S+]([O-])C(F)(F)F)c(C#N)nn2-c2c(Cl)cc(C(F)(F)F)cc2Cl)cc1 (stereo not drawn) [Compound 2-109] | active |
| CCS(=O)(=O)Nc1c([S+]([O-])C(F)(F)F)c(C#N)nn1-c1c(Cl)cc(C(F)(F)F)cc1Cl (stereo not drawn) [Compound 1-117] | active |
| CCCCCCCCCCCCS(=O)(=O)N(C)c1c([S+]([O-])C(F)(F)F)c(C#N)nn1-c1c(Cl)cc(C(F)(F)F)cc1Cl (stereo not drawn) [Compound 1-126] | active |
| CN(c1c([S+]([O-])C(F)(F)F)c(C#N)nn1-c1c(Cl)cc(C(F)(F)F)cc1Cl)S(=O)(=O)c1ccc(C(C)(C)C)cc1 (stereo not drawn) [Compound 5-83] | active |
| COC(=O)c1ccc(I)cc1S(=O)(=O)N(C)c1c([S+]([O-])C(F)(F)F)c(C#N)nn1-c1c(Cl)cc(C(F)(F)F)cc1Cl (stereo not drawn) [Compound 5-86] | active |
| CN(c1c(SC(F)(F)F)c(C#N)nn1-c1c(Cl)cc(C(F)(F)F)cc1Cl)S(=O)(=O)Cc1ccc(Cl)cc1 [Compound 2-45] | active |

| SMILES | active in one or more of the above tests |
| --- | --- |
| CN(c1c(S(=O)(=O)C(F)(F)F)c(C#N)nn1-c1c(Cl)cc(C(F)(F)F)cc1Cl)S(=O)(=O)Cc1cc(Cl)cc(Cl)c1 [Compound 2-151] | active |
| Cc1ccc(CS(=O)(=O)N(C)c2c(SC(F)(F)F)c(C#N)nn2-c2c(Cl)cc(C(F)(F)F)cc2Cl)cc1 [Compound 2-74] | active |
| CN(c1c(SC(F)(F)F)c(C#N)nn1-c1c(Cl)cc(C(F)(F)F)cc1Cl)S(=O)(=O)Cc1ccc(Cl)s1 [Compound 4-32] | active |
| CN(c1c(S(=O)(=O)C(F)(F)F)c(C#N)nn1-c1c(Cl)cc(C(F)(F)F)cc1Cl)S(=O)(=O)Cc1ccc(C(F)(F)F)cc1 [Compound 2-128] | active |
| CN(c1c([S+]([O-])C(F)(F)F)c(C#N)nn1-c1c(Cl)cc(C(F)(F)F)cc1Cl)S(=O)(=O)Cc1ccccc1 (stereo not drawn) [Compound 2-16, 1-(2,6-Dichloro-4-trifluoromethylphenyl)-3-cyano-5-(N-benzylsulfonyl-N-methylamino)-4-trifluoromethylsulfinylpyrazole] | active |
| CN(c1c([S+]([O-])C(F)(F)F)c(C#N)nn1-c1c(Cl)cc(C(F)(F)F)cc1Cl)S(=O)(=O)c1cccc(Cl)c1 (stereo not drawn) [Compound 5-47] | active |
| CCCCS(=O)(=O)N(C)c1c(S(=O)(=O)C(F)(F)F)c(C#N)nn1-c1c(Cl)cc(C(F)(F)F)cc1Cl [Compound 1-120] | active |
| CN(c1c([S+]([O-])C(F)(F)F)c(C#N)nn1-c1c(Cl)cc(C(F)(F)F)cc1Cl)S(=O)(=O)Cc1cc(Cl)cc(Cl)c1 (stereo not drawn) [Compound 2-150] | active |
| CN(c1c(S(=O)(=O)C(F)(F)F)c(C#N)nn1-c1c(Cl)cc(C(F)(F)F)cc1Cl)S(=O)(=O)CCCCl [Compound 1-121, 1-(2,6-Dichloro-4-trifluoromethylphenyl)-5-[N-(3-chloropropylsulfonyl)-N-methylamino]-3-cyano-4-trifluoromethylsulfonylpyrazole] | active |
| CN(c1c(SC(F)(F)F)c(C#N)nn1-c1c(Cl)cc(C(F)(F)F)cc1Cl)S(=O)(=O)c1ccc(C(C)(C)C)cc1 [Compound 5-38] | active |
| CN(c1c([S+]([O-])C(F)(F)F)c(C#N)nn1-c1c(Cl)cc(C(F)(F)F)cc1Cl)S(=O)(=O)Cc1ccc(Cl)cc1 (stereo not drawn) [Compound 2-80] | active |
| CN(c1c([S+]([O-])C(F)(F)F)c(C#N)nn1-c1c(Cl)cc(C(F)(F)F)cc1Cl)S(=O)(=O)C=Cc1ccccc1 (stereo not drawn) [Compound 1-114] | active |
| CN(c1c(SC(F)(F)F)c(C#N)nn1-c1c(Cl)cc(C(F)(F)F)cc1Cl)S(=O)(=O)c1ccc(C(F)(F)F)cc1 [Compound 5-16] | active |
| CN(c1c([S+]([O-])C(F)(F)F)c(C#N)nn1-c1c(Cl)cc(C(F)(F)F)cc1Cl)S(=O)(=O)Cc1ccc(F)cc1 (stereo not drawn) [Compound 2-86] | active |
| CCCCCCCCCCCCS(=O)(=O)N(C)c1c([S+]([O-])C(F)(F)F)c(C#N)nn1-c1c(Cl)cc(C(F)(F)F)cc1Cl (stereo not drawn) [Compound 1-96] | active |
| CN(c1c([S+]([O-])C(F)(F)F)c(C#N)nn1-c1c(Cl)cc(C(F)(F)F)cc1Cl)S(=O)(=O)Cc1cc(C(F)(F)F)cc(C(F)(F)F)c1 (stereo not drawn) [Compound 2-94] | active |
| CN(c1c([S+]([O-])C(F)(F)F)c(C#N)nn1-c1c(Cl)cc(C(F)(F)F)cc1Cl)S(=O)(=O)C(Cl)Cl (stereo not drawn) [Compound 1-119] | active |
| Cc1ccc(CS(=O)(=O)N(C)c2c(S(=O)(=O)C(F)(F)F)c(C#N)nn2-c2c(Cl)cc(C(F)(F)F)cc2Cl)cc1 [Compound 2-144] | active |
| CC(C)S(=O)(=O)N(C)c1c([S+]([O-])C(F)(F)F)c(C#N)nn1-c1c(Cl)cc(C(F)(F)F)cc1Cl (stereo not drawn) [Compound 1-85] | active |

Source: US7504362B2, “Pesticidal compositions” (Merial Limited, priority 2002, dated 2009)
